Test results taken from the supplement of paper PMC10307832.

Experiments:
Assay in all cases: relative viability (nuclei count vs DMSO), 5 days (fraction); higher = more cells survive
[1] = compound: Nc1nc2[nH]cc(CCc3ccc(C(=O)N[C@@H](CCC(=O)O)C(=O)O)cc3)c2c(=O)[nH]1 [Pemetrexed] + CCNC(=O)c1noc(-c2cc(C(C)C)c(O)cc2O)c1-c1ccc(CN2CCOCC2)cc1 [Luminespib] (partner 0.01 µM)
Outline: (§1)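 Lung cancer cell lines were pin-tool dosed in 1536-well plates on the day after seeding, with either a lone drug or a fixed anchor-drug dose plus five library-drug doses (not always all listed) in √10 steps. Nuclei were counted on 4× images after 5 days. Relative viability is the ratio of treated-well to vehicle-well nuclei counts, with each value a median of duplicate plates.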

[2] = compound: Nc1nc2[nH]cc(CCc3ccc(C(=O)N[C@@H](CCC(=O)O)C(=O)O)cc3)c2c(=O)[nH]1 [Pemetrexed] + Cc1cc(Nc2cc(N3CCN(C)CC3)nc(Sc3ccc(NC(=O)C4CC4)cc3)n2)n[nH]1 [Tozasertib] (partner 0.1 µM)
Outline: as §1

[3] = compound: CC[C@H](Nc1ncnc2[nH]cnc12)c1nc2cccc(F)c2c(=O)n1-c1ccccc1 [Idelalisib] + O=C(c1cc(Cc2n[nH]c(=O)c3ccccc23)ccc1F)N1CCN(C(=O)C2CC2)CC1 [Olaparib] (partner 8 µM)
Outline: as §1

[4] = compound: CC[C@H](Nc1ncnc2[nH]cnc12)c1nc2cccc(F)c2c(=O)n1-c1ccccc1 [Idelalisib] + CS(=O)(=O)CCNCc1ccc(-c2ccc3ncnc(Nc4ccc(OCc5cccc(F)c5)c(Cl)c4)c3c2)o1 [Lapatinib] (partner 2 µM)
Outline: as §1

| Cell Line | relative viability ([1]; first compound 0.002 µM) | relative viability ([1]; first compound 0.006325 µM) | relative viability ([1]; first compound 0.02 µM) | relative viability ([1]; first compound 0.06325 µM) | relative viability ([1]; first compound 0.2 µM) | relative viability ([2]; first compound 0.002 µM) | relative viability ([2]; first compound 0.006325 µM) | relative viability ([2]; first compound 0.02 µM) | relative viability ([2]; first compound 0.06325 µM) | relative viability ([2]; first compound 0.2 µM) | relative viability ([3]; first compound 0.04 µM) | relative viability ([3]; first compound 0.1265 µM) | relative viability ([3]; first compound 0.4 µM) | relative viability ([3]; first compound 1.265 µM) | relative viability ([3]; first compound 4 µM) | relative viability ([4]; first compound 0.04 µM) | relative viability ([4]; first compound 0.1265 µM) | relative viability ([4]; first compound 0.4 µM) | relative viability ([4]; first compound 1.265 µM) | relative viability ([4]; first compound 4 µM) |
| --- | --- | --- | --- | --- | --- | --- | --- | --- | --- | --- | --- | --- | --- | --- | --- | --- | --- | --- | --- | --- |
| LCLC-103H | 0.963 | 0.942 | 1.02 | 0.796 | 0.94 | 0.451 | 0.366 | 0.515 | 0.443 | 0.443 | 0.728 | 0.791 | 0.721 | 0.757 | 0.705 | – | – | – | – | – |
| NCI-H441 | 0.35 | 0.328 | 0.33 | 0.393 | 0.328 | 0.66 | 0.484 | 0.827 | 0.515 | 0.342 | 0.532 | 0.582 | – | 0.618 | 0.55 | – | – | – | – | – |
| NCI-H522 | 1.21 | 1 | 1.29 | 1.12 | 1.24 | 0.544 | 0.518 | 0.582 | 0.56 | 0.593 | 0.684 | 0.526 | 0.606 | 0.678 | 0.72 | – | – | – | – | – |
| NCI-H1299 | – | – | – | – | – | – | – | – | – | – | 1.01 | 0.982 | 0.941 | 1.02 | 1.06 | 0.927 | 0.977 | 0.943 | 1.09 | 1.02 |
| NCI-H1563 | 0.496 | 0.505 | 0.562 | 0.481 | 0.569 | – | – | – | – | – | – | – | – | – | – | 1.01 | 1.05 | 0.833 | 1 | 0.83 |
| NCI-H1623 | 0.628 | 0.325 | 0.503 | 0.443 | 0.613 | 0.409 | 0.357 | 0.425 | 0.433 | 0.434 | – | – | – | – | – | – | – | – | – | – |
| NCI-H1648 | – | – | – | – | – | 0.531 | 0.486 | 0.595 | – | 0.542 | – | 1.16 | 0.712 | 1.11 | 0.657 | – | – | – | – | – |
| NCI-H1703 | – | – | – | – | – | – | – | – | – | – | 0.459 | 0.436 | 0.365 | 0.388 | 0.237 | 1.53 | 1.03 | 0.961 | 1.29 | 0.618 |
| NCI-H1792 | 0.578 | 0.51 | 0.539 | 0.476 | 0.45 | – | – | – | – | – | 0.244 | 0.369 | 0.267 | 0.409 | 0.298 | 0.465 | 0.942 | 0.903 | 0.878 | 0.918 |
| NCI-H2342 | 0.678 | 0.8 | 0.676 | 0.799 | 0.788 | 0.454 | 0.497 | 0.573 | 0.589 | 0.486 | 0.442 | 0.481 | 0.457 | 0.421 | 0.407 | – | – | – | – | – |
| SW 900 | 0.198 | 0.147 | 0.18 | 0.181 | 0.158 | 0.5 | 0.535 | 0.678 | 0.495 | 0.466 | 0.904 | 0.842 | 0.729 | 0.93 | 0.665 | – | – | – | – | – |
